Results taken from ChEMBL document CHEMBL1121615, “Synthesis and analgesic properties of some conformationally restricted analogues of profadol” (1980).

Key:
Format in all cases: functional
[1] = test system: Mus musculus; experiment: The ED50 value of compound was measured for 50% inhibition for analgesia in mice after oral administration by the hotplate method
[2] = test system: Mus musculus; experiment: Analgesia was determined by writhing test in mice after 30 mg/kg oral administration; Range is 50-74%.
[3] = test system: Mus musculus; experiment: Analgesia was determined by writhing test in mice after 100 mg/kg oral administration; Range is 50-74%.
[4] = test system: Mus musculus; experiment: Analgesia was determined by writhing test in mice after 100 mg/kg oral administration; Range is 75-99%.
[5] = species on record: Mus musculus; experiment: animal or person
Description: The ED50 value of compound was measured for 50% inhibition for analgesia in mice by the hotplate method

[6] = test system: Mus musculus; experiment: Analgesia was determined by writhing test in mice after 100 mg/kg oral administration; Range is 25-49%.
[7] = test system: Mus musculus; experiment: Analgesia was determined by writhing test in mice after 30 mg/kg oral administration
[8] = test system: Mus musculus; experiment: Analgesia was determined by writhing test in mice after 10 mg/kg oral administration

**Q.** COc1ccc2c(c1)C1(CCC2)CCN(C)C1 (stereo not given) was tested. Which ED50 [1] did it give?
**A.** > 50 mg/kg

**Q.** And the inhibition in vivo at 30 mg/kg [2]?
**A.** 50%

**Q.** Which inhibition in vivo at 100 mg/kg [3] does the source give for COc1ccc2c(c1)CCCC21CCN(C)C1 (stereo not given) here?
**A.** 50%

**Q.** For COc1cccc2c1CCCC21CCN(C)C1 (stereo not given), which inhibition in vivo at 100 mg/kg [4] is on record?
**A.** 75%

**Q.** What does the source list for COc1cccc2c1CCCC21CCNC1 (stereo not given)?
**A.** ED50 [5]: 48.6 mg/kg; inhibition in vivo at 30 mg/kg [2]: 50%

**Q.** Which inhibition in vivo at 100 mg/kg [3] does the source give for Oc1ccc2c(c1)CCCC21CCNC1 (stereo not given) here?
**A.** 50%

**Q.** Oc1ccc2c(c1)C1(CCC2)CCNC1 (stereo not given) was tested. Which inhibition in vivo at 100 mg/kg [3] did it give?
**A.** 50%

**Q.** With Br.Oc1cccc2c1CCCC21CCNC1 (stereo not given) as the compound, how does the ED50 [1] read?
**A.** > 50 mg/kg

**Q.** What about the inhibition in vivo at 30 mg/kg [2] of the same compound?
**A.** 50%

**Q.** How did the ED50 [5] turn out when Br.CN1CCC2(CCCc3ccc(O)cc32)C1 (stereo not given) was run?
**A.** 42.8 mg/kg

**Q.** What about the inhibition in vivo at 30 mg/kg [2] of the same compound?
**A.** 50%

**Q.** COc1ccc2c(c1)C1(CCC2)CCNC1 (stereo not given) was tested. Which inhibition in vivo at 100 mg/kg [6] did it give?
**A.** 25%

**Q.** CN1CCC2(CCCc3c(O)cccc32)C1 (stereo not given) was tested. Which inhibition in vivo at 100 mg/kg [6] did it give?
**A.** 25%

**Q.** Which ED50 [5] does the source give for Cl.c1ccc2c(c1)CCCC21CCNC1 (stereo not given) here?
**A.** 13.3 mg/kg

**Q.** And the inhibition in vivo at 30 mg/kg [7]?
**A.** 100%

**Q.** For Br.CN1CCC2(CCCc3cc(O)ccc32)C1 (stereo not given), which ED50 [5] is on record?
**A.** > 50 mg/kg

**Q.** What about the inhibition in vivo at 30 mg/kg [2] of the same compound?
**A.** 50%

**Q.** How did the ED50 [5] turn out when CN1CCC2(CCCc3ccccc32)C1.Cl (stereo not given) was run?
**A.** 12.1 mg/kg

**Q.** And the inhibition in vivo at 30 mg/kg [7]?
**A.** 100%

**Q.** Which inhibition in vivo at 100 mg/kg [6] does the source give for COc1ccc2c(c1)CCCC21CCNC1 (stereo not given) here?
**A.** 25%

**Q.** How did the ED50 [5] turn out when CN1CC[C@]23c4c5ccc(O)c4O[C@H]2[C@@H](O)C=C[C@H]3[C@H]1C5.Cl [MORPHINE HYDROCHLORIDE] was run?
**A.** 1.2 mg/kg

**Q.** And the inhibition in vivo at 10 mg/kg [8]?
**A.** 100%

**Q.** Which results are given for CCCC1(c2cccc(O)c2)CCN(C)C1 (stereo not given) [PROFADOL]?
**A.** ED50 [1]: 3.9 mg/kg; inhibition in vivo at 10 mg/kg [8]: 100%
